We go through three compounds from paper PMC3545992, “Trisubstituted Pyrazolopyrimidines as Novel Angiogenesis Inhibitors” (PLoS ONE, 2013).

One may read the IC50 as the point on the concentration scale where inhibition reaches its midpoint.

One data set relates to Cdk2. Set-up: method as in Jorda et al. [23]. The following applies: ref Jorda et al. [23]; cited from earlier work.
Another data set deals with Cdk5. Also noted: method as in Jorda et al. [23]. The following applies: ref Jorda et al. [23]; cited from earlier work.
For the next data set, the target named is T1, RSK3 (Homo sapiens, UniProt Q15349).
T1 construct: purchased ProQinase (Freiburg, Germany)
In words: In vitro kinase profile (ProQinase). The class given is biochemical. How it is done:
(§1) Therefore, it was of interest to see which kinases, especially which Cdks, are inhibited by those compounds. The kinase profiling was performed by ProQinase (Freiburg, Germany) for LGR 1406 and 1407. For LGR 1404 kinase profiling has recently been published previously. LGR 1406 and 1407 were tested for their IC50 in a panel of 24 kinases, including the Cdk1, Cdk2, Cdk4, Cdk5, Cdk6, Cdk7 and Cdk9. The other kinases tested were PTK6, EGFR, FAK, FGFR1 and FGFR2, NLK, PAK4, VEGFR1 and VEGFR2, MEK1, ROCK1, RAF1, ALK, RSK3, AURKA, and AMPKα1.

The next data set concerns the target T2, Cdk6/CycD1 (Homo sapiens, UniProt Q00534).
T2 construct: purchased ProQinase (Freiburg, Germany)
Kind of data set: In vitro kinase profile (ProQinase). Type of data set: biochemical. How it is done: as §1

The next data set addresses T3, Cdk5/p25 (Homo sapiens, UniProt Q00535).
T3 construct: purchased ProQinase (Freiburg, Germany)
Kind of data set: In vitro kinase profile (ProQinase). Type of data set: biochemical. The procedure: as §1

The next data set addresses T4, Cdk7/CycH/MAT1 (Homo sapiens, UniProt P50613).
T4 construct: purchased ProQinase (Freiburg, Germany)
In words: In vitro kinase profile (ProQinase). The class given is biochemical. How it is done: as §1

The next data set concerns the target T5, Aurora kinase A (Homo sapiens, UniProt O14965).
T5 construct: purchased ProQinase (Freiburg, Germany)
T5 sequence (O14965 1-403): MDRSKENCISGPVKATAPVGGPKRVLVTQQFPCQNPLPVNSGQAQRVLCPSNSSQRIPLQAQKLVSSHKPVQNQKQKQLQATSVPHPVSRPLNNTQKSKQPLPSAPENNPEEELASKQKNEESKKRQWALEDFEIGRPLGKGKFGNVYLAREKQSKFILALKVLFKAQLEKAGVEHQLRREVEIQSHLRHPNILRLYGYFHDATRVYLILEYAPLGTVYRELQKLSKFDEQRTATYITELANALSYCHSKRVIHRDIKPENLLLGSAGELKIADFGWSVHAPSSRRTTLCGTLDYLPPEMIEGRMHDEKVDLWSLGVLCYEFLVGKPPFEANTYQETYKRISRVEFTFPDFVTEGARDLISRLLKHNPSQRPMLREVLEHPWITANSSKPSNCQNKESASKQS
In words: In vitro kinase profile (ProQinase). The class given is biochemical. The procedure:
as §1

The target in another data set is T6, Cdk2/CycE (Homo sapiens, UniProt P24941).
T6 construct: purchased ProQinase (Freiburg, Germany)
Kind of data set: In vitro kinase profile (ProQinase). Type of data set: biochemical. The procedure: as §1

The next data set concerns the target T7, PAK4 (Homo sapiens, UniProt O96013).
T7 construct: purchased ProQinase (Freiburg, Germany)
Kind of data set: In vitro kinase profile (ProQinase). Type of data set: biochemical. The procedure:
as §1

In a further data set the target is T8, FAK (Homo sapiens, UniProt Q05397).
T8 construct: purchased ProQinase (Freiburg, Germany)
Kind of data set: In vitro kinase profile (ProQinase). Type of data set: biochemical. How it is done:
as §1

The target of a further data set is T9, Cdk1/CycB (Homo sapiens, UniProt P06493).
T9 construct: purchased ProQinase (Freiburg, Germany)
Kind of data set: In vitro kinase profile (ProQinase). The class given is biochemical. How it is done: as §1

The target of a further data set is T10, Cdk9/CycT (Homo sapiens, UniProt P50750).
T10 construct: purchased ProQinase (Freiburg, Germany)
Kind of data set: In vitro kinase profile (ProQinase). Type of data set: biochemical. The procedure:
as §1

Another data set has as its system HMEC-1 cells. In words: Microscopy / propidium iodide staining for cell death at proliferation-assay cell density. The class given is cell-based. Particulars: 30 µM, 72 h. The procedure: A: HMEC-1 cells were seeded in the same density as for the proliferation assay and treated with the respective compound at 30 µM for 72 h to test whether reduced cell numbers in the proliferation assay are due to inhibition of proliferation or to excessive cell death. No increase of detached, obviously dead or propidium iodide positive cells was detected. B and C: Confluent layers of HUVECs were scratched and the cells were allowed to migrate for 16 h in the presence or absence of 10 µM of the compounds. B: The columns indicate the area re-covered by migrating cells (n = 3, mean ± SEM, * p<0.05, One Way ANOVA, Dunnett). C: Scratches at endpoint, representative images taken out of three experiments.
HMEC-1 were seeded into 96-well-plates (1,500 cells/well). After 24 h, the cells were stimulated with the indicated compounds. At the same time point, cells in a reference plate were stained with crystal violet, serving as initial cell number. After 72 hours of stimulation, cells were fixed and stained with crystal-violet solution for 10 minutes, washed with water, and air dried. Crystal violet was eluted with dissolving buffer and absorbance was measured at 550 nm (Tecan Sunrise Absorbance reader, TECAN, Crailsheim, Germany). […] Phase contrast and fluorescence images were obtained with an inverted Nikon microscope (Ti, Nikon, Düsseldorf, Germany) equipped with a 10x objective.

T2 sequence (Q00534 whole entry): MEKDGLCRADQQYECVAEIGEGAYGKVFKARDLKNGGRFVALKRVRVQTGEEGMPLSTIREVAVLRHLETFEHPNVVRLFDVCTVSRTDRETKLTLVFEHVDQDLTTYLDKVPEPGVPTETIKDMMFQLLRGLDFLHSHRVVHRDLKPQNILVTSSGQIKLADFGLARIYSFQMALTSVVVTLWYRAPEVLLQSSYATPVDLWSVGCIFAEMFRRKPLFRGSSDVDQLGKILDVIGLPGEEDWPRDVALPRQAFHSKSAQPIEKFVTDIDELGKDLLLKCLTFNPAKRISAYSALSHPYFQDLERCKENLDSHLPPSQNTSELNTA
T2 sequence (P24385 whole entry partner): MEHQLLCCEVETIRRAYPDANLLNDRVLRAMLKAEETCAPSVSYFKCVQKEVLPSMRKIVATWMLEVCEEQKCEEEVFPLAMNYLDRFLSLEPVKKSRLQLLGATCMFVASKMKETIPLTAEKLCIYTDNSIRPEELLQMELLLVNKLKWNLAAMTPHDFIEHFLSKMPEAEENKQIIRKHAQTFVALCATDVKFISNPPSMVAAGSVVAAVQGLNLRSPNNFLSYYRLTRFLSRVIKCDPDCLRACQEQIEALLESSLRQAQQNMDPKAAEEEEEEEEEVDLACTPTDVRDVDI
T4 sequence (P50613 whole entry): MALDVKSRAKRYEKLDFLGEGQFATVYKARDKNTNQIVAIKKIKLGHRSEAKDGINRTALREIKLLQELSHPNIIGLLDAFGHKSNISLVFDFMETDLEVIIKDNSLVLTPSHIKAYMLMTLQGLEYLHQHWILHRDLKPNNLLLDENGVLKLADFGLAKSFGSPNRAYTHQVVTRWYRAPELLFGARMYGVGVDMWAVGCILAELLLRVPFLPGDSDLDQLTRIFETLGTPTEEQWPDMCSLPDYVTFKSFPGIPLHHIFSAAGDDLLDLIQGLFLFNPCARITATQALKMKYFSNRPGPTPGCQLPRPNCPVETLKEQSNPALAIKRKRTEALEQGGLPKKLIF
T4 sequence (P51946 whole entry partner): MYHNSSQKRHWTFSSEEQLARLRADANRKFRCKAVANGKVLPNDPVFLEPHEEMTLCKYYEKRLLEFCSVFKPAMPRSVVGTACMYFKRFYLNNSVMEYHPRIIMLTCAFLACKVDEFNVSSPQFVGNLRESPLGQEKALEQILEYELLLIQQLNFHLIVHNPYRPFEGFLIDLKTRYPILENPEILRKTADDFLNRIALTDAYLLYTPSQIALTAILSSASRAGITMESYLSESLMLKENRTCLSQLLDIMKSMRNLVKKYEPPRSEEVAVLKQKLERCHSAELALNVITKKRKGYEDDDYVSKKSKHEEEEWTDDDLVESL
T4 sequence (P51948 whole entry partner): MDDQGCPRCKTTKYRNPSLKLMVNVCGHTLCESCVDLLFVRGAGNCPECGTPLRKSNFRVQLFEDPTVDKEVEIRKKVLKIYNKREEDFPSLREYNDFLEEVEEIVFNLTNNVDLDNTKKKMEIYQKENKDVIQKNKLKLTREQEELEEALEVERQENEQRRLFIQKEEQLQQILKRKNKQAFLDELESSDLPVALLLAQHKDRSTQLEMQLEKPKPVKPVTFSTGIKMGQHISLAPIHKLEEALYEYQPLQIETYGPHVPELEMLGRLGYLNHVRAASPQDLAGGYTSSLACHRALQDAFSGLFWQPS
T10 sequence (P50750 whole entry): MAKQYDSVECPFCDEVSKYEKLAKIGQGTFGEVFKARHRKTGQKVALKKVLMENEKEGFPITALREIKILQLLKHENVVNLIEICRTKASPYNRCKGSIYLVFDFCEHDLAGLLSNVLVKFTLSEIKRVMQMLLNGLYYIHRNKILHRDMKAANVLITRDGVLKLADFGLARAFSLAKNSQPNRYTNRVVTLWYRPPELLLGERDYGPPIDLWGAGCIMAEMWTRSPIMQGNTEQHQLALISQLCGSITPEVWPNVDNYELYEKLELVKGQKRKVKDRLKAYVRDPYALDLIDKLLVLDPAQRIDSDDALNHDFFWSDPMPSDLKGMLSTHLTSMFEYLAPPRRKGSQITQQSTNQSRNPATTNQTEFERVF
T10 sequence (O60563 whole entry partner): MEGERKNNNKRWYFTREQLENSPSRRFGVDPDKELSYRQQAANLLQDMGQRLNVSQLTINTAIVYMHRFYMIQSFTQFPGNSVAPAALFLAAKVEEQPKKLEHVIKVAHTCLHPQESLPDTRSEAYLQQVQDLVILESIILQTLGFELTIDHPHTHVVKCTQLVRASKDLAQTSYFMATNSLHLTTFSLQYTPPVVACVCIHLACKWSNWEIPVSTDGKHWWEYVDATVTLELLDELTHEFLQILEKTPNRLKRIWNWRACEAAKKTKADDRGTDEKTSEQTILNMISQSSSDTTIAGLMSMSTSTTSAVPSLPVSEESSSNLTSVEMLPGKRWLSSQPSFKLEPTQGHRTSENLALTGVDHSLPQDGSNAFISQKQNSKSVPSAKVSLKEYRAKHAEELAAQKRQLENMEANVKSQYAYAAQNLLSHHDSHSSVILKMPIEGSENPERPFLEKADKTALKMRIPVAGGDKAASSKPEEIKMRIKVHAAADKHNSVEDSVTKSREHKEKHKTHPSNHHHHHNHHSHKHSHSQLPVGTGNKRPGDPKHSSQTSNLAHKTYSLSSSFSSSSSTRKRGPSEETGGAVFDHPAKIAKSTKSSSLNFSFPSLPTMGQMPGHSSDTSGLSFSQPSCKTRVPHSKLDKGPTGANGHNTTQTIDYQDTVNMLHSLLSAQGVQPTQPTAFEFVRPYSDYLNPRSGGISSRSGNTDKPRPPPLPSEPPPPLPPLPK
T3 sequence (Q00535 whole entry): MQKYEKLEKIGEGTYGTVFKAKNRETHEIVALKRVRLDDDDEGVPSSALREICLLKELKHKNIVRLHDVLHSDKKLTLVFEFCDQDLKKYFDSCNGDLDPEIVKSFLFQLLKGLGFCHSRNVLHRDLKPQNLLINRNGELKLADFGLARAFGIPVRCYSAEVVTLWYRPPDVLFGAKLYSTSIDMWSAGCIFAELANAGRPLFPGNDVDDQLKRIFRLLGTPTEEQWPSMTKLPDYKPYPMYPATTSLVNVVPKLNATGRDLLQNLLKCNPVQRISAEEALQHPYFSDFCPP
T3 sequence (Q15078 99-307 partner limits assumed): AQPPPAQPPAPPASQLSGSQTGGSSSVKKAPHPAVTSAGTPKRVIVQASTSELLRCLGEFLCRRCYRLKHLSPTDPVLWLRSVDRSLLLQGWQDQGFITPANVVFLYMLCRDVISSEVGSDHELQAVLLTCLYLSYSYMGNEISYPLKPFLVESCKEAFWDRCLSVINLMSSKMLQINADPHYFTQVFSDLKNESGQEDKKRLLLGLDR
T9 sequence (P06493 whole entry): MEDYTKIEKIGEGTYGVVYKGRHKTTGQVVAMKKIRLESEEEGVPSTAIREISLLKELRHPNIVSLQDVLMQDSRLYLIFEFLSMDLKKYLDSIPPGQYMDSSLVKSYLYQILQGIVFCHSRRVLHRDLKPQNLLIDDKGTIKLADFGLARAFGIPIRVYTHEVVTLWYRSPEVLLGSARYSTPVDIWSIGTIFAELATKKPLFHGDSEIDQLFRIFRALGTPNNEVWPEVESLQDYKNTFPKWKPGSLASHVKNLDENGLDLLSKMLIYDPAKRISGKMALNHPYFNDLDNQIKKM
T9 sequence (P14635 whole entry partner): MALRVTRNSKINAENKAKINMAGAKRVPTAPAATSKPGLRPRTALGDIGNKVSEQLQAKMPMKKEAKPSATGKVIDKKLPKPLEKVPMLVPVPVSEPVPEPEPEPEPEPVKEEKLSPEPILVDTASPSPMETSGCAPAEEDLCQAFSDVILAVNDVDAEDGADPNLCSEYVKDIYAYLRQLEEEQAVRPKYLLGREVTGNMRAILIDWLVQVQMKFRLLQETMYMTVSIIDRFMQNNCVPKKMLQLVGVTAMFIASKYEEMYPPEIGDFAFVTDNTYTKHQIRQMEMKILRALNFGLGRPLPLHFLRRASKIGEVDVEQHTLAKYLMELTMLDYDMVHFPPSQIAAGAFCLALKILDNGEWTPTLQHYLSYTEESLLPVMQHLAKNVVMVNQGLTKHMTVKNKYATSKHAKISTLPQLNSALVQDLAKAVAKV
T1 sequence (Q15349 whole entry): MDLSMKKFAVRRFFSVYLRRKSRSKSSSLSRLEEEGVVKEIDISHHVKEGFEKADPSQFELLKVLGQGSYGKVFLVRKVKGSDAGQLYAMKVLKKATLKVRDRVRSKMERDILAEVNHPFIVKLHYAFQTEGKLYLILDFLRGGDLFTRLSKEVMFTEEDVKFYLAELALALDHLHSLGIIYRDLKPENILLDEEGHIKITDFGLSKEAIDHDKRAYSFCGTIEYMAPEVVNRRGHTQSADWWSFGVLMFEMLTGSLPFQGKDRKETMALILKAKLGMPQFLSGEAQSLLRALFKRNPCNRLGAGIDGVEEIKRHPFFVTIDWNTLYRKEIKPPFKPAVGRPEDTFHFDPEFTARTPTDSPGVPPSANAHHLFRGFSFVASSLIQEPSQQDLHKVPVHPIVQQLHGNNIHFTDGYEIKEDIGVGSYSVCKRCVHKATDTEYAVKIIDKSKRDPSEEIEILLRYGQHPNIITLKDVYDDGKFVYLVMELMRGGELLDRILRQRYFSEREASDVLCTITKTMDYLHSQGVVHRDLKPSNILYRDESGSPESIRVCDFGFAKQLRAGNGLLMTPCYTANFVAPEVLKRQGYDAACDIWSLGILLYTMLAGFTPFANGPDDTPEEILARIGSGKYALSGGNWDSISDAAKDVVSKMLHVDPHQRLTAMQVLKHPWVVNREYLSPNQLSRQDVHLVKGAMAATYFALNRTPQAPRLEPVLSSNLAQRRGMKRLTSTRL

Consider `CC[C@H](CO)Nc1nc(NCc2ccccc2)c2n[nH]c(C(C)C)c2n1` [LGR 1404, 7-Benzylamino-5(R)-[(1-hydroxymethyl)propylamino]-3-isopropyl-1(2)H-pyrazolo[4,3-d]pyrimidine], for which the IC50 in the data set on Cdk2 was 220 nM; with Cdk5, 940 nM.
For the compound `CC(C)c1n[nH]c2c(NCc3ccccc3)nc(NC3CCCCC3N)nc12` (centres unmarked) [LGR 1406, 5-[(2-E/Z-aminocyclohexyl)amino]-7-benzylamino-3-isopropyl-1(2)H-pyrazolo[4,3-d]pyrimidine], the IC50 was below 10000 nM at RSK3; above 100000 nM at Cdk6/CycD1; 440 nM against Cdk5/p25; above 100000 nM at Cdk7/CycH/MAT1; below 10000 nM on Aurora kinase A; 590 nM on Cdk2/CycE. The IC50 was below 10000 nM against PAK4, below 10000 nM against FAK, 3200 nM against Cdk1/CycB and 1000 nM against Cdk9/CycT. Further, in the data set on HMEC-1 cells, the “morphologically altered, dead or detached cells, loss of membrane integrity (propidium iodide)” value was “no increase of morphologically altered, dead or detached cells, and no loss of membrane integrity”.
Regarding `CC(C)c1n[nH]c2c(NCc3ccccc3)nc(NC3CCC(N)CC3)nc12` (centres unmarked) [LGR 1407, 5-[(4-E-aminocyclohexyl)amino]-7-benzylamino-3-isopropyl-1(2)H-pyrazolo[4,3-d]pyrimidine], the IC50 at Cdk6/CycD1 was 91000 nM; against Cdk5/p25 it was 1600 nM; on Cdk7/CycH/MAT1, above 100000 nM; on Aurora kinase A it was at most 10000 nM; against Cdk2/CycE it was 990 nM; at Cdk1/CycB, 5800 nM. On Cdk9/CycT, this compound showed a concentration for half-maximal inhibition (IC50) of 1900 nM.
